Measurements published in patent US20250221953A1 (The University of Chicago, priority 2022, published 2025).
Where two headings read alike, the source gives them in different places.

Experiments:
B16F10 tumor = assay: Mouse tumor model, B16F10; format: in vivo; details: B16F10 tumor-bearing C57BL/6 mice on enriched diet vs control diet
Procedure: For C57BL/6 mice and TCR-a KO mice tumor model, mice were anesthetized with isoflurane, shaved the injection site, and then injected subcutaneously in the abdominal flank with 1×10^5 B16F10, MC38, or LLC1 cells, or in the mammary gland with 2×10^5 E0771 cells. C57BL/6 nude mice were injected subcutaneously in the abdominal flank with 1×10^5B16F10 cells. […] Tumors were measured the tumors using a caliper every 2-3 days. Tumor volumes were calculated using the following formula: length×width×[(length×width)^0.5]×π/6. Mice were euthanized at humane endpoints or day 11-15 for tissue collection.
The mice were treated once a day for 5 consecutive days per week for 2 weeks. Tumors were measured the tumors using a caliper every 2-3 days. Tumor volumes were calculated using the following formula: length×width×[(length×width)^0.5]×π/6. Mice were euthanized at humane endpoints.
For anti-PD-1 treatment mouse model, 6-8 weeks old C57BL/6 mice were anesthetized with isoflurane, shaved the injection site, and then injected subcutaneously in the abdominal flank with 1×10^5 B16F10 for tumor development. […] In day 3, 6, 9, 12, and 15, 250 μg anti-PD-1 (BioXCell) or IgG control (BioXCell) was injected intraperitoneally per mouse. Tumors were measured the tumors using a caliper every 2-3 days. Tumor volumes were calculated using the following formula: length×width×[(length×width)^0.5]×π/6. […]

[1] = tested on: mouse primary CD8^+ T cells; assay: In vitro function of activated mouse primary CD8+ T cells (cytokines, Ki-67, apoptosis, p-CREB); format: cell-based; details: for effect of inhibitor/modulator on TVA-enhanced activation of CD8+ T cells (IL-2, TNF-α, IFN-γ): added synchronized with 20 μM TVA for 24 hours, SCH-202676 200 nM, H-89 200 nM, 666-15 100 nM
Procedure: For experiments with live/dead criteria, cells were first stained with Fixable Viability Dyes (FVD) (Thermo Fisher Scientific) according to the manufacturer's instructions. Subsequent surface marker staining was performed in Flow Cytometry Staining Buffer (Thermo Fisher Scientific). Intracellular staining for flow panels containing nuclear proteins was performed using the eBioscience FoxP3/Transcription Factor Staining Buffer Set (Thermo Fisher Scientific) according to the manufacturer's instructions. For intracellular staining of cytoplasmic proteins, the Fixation/Permeabilization Solution Kit (BD Biosciences) was used according to the manufacturer's instructions. […] The cell pellets were washed again with FACS buffer, centrifuged at 300×g for 5 minutes, and incubated with antibodies in FACS buffer for 45 minutes-1 hour at room temperature. […] Treatment with sulfosuccinimidyl oleate (SSO) was performed by incubating cells with 100 μM SSO for 24 hours.

Mouse CD4^+ T cell = assay: Second screen: IL-2 level of mouse CD4+ T cells
Mouse T cell = assay: Second screen: IL-2 level of murine primary T cells; format: cell-based
Excerpt: Two preliminary screens were designed and performed.

Jurkat T cells = format: cell-based, human; details: IL-2 production level in treated group compared to control group, 48 hours treatment, then anti-CD3/anti-CD28 12 hours
Mouse CD8^+ T cell = assay: Second screen: IL-2 level of mouse CD8+ T cells
[2] = tested on: B cell acute lymphoblastic leukemia (B-ALL); details: Kantarjian et al., 2017; cited from earlier work
[3] = tested on: mouse primary CD8^+ T cells; assay: 13C1-TVA metabolic flux analysis by GC-MS; format: cell-based; details: 100 μM SSO, 24 hours
Procedure: Samples were kept at room temperature after centrifugation to form two distinct phases. 650 μL of the bottom dichloromethane fraction was transferred into a new glass tube and dried with nitrogen gas to obtain a lipid fraction pellet. […] FAME cleanup was applied if analyzing animal tissues (FAME Cleanup: a Florisil column was pre-conditioned with 3 mL of hexane, added methyl ester, and eluted twice with 1 mL isohexane-diethyl ether (95:5 v/v), with drying down in between elutions). Otherwise, samples were dried down under nitrogen and re-suspended in 50 μL of hexane to load onto gas chromatography (GC) mass spectrometry (MS). […] Metabolite levels and mass isotopomer distributions of derivatized fragments were analyzed with an in-house MATLAB script, which integrated the metabolite fragment ions and corrected for natural isotope abundances.

[4] = tested on: murine melanoma B16 cells; assay: Oral gavage in syngeneic mice inoculated with B16 cells; format: in vivo, mouse
[5] = tested on: mouse melanoma B16 cells with CD8+ T cells; assay: CD8+ T cell mediated killing of B16 cells in vitro; format: cell-based

Compound	Mouse CD4^+ T cell IL-2 level changes after treatment (Mouse CD4^+ T cell) [%]	Mouse T cell IL-2 level changes after treatment (Mouse T cell) [%]	Relative changed percentage (%) (Jurkat T cells)	Mouse CD8^+ T cell IL-2 level changes after treatment (Mouse CD8^+ T cell) [%]	further results
CCCCCC/C=C\CCCCCCCCCC(=O)O [CVA, cis-Vaccenic acid, reference compound]					body weights of mice (B16F10 tumor): did not alter body weights
Cl.Cl.O=S(=O)(NCCNC/C=C/c1ccc(Br)cc1)c1cccc2cnccc12 [Compound H89, H 89 Dihydrochloride, reference compound]					effect of inhibitor/modulator on TVA-enhanced activation of CD8+ T cells (IL-2, TNF-α, IFN-γ) [1]: similarly abolishes TVA-enhanced activation of CD8^+ T cells
Nc1nc2nc[nH]c2c(=O)[nH]1 [GUANINE]	110.4	148.6	15.14	150.8	
CC(=O)O [acetate, reference compound]					enhanced CD8+ T cell activation by pre-treatment with 20 μM TVA (TVA first) ([1]; TVA 12 hours, then 20 mM acetate 12 hours): cannot be reversed by 20 mM acetate; CD8+ T cell activation (TNF-α, IFN-γ levels) ([1]; increasing concentrations of acetate up to 20 mM): attenuate CD8^+ T cell activation
Blinatumomab: bi-specific T-cell engager (BiTE) targeting CD19 antigen on B cells and CD3 on T cells					response rate in relapsed disease [2]: < 50%
CCCCCCCC/C=C\CCCCCCCC(=O)ON1C(=O)CC(S(=O)(=O)O)C1=O (centres unmarked) [SSO, sulfosuccinimidyl oleate, reference compound]					effect of SSO on TVA-dependent CD8+ T cell activation ([1]; 100 μM SSO, TNF-α, IFN-γ): does not affect TVA-dependent CD8^+ T cell activation; effect on import of 13C-TVA into CD8+ T cells [3]: drastically reduced import of ^13C-TVA
D-Glycerate 2,3-diphosphate sodium salt	97.9	106.2	47.74	121.4	
Br.CN=c1nc(-c2ccccc2)n(-c2ccccc2)s1 [SCH 202676 hydrobromide, reference compound]					effect of inhibitor/modulator on TVA-enhanced activation of CD8+ T cells (IL-2, TNF-α, IFN-γ) [1]: abolishes TVA-enhanced activation of CD8^+ T cells
OC[C@H]1OC(O)[C@H](O)[C@@H](O)[C@H]1O (stereo partly drawn) [D(+)-GALACTOSE ANHYDROUS]	110.4	130.1	35.84	130.3	
C-PEPTIDE FRAGMENT 3-33, HUMAN/C-peptide [#203]					anti-tumor immunity [4]: increased anti-tumor immunity in a dose dependent manner; CD8+ T cells mediated killing of mouse melanoma B16 cells [5]: enhances CD8+ T cells mediated killing of mouse melanoma B16 cells; killing and CD8 T cell function compared with TVA [5]: better than cells treated with TVA
Cc1cn([C@H]2C[C@H](O)[C@@H](CO)O2)c(=O)[nH]c1=O [THYMIDINE]	135.8	145.6	39.63	128.9	
Nc1ccc(C(=O)O)cc1 [p-Aminobenzoic Acid]	140.5	160.3		145.2	
D-Pantothenic Acid, hemicalcium salt					Relative changed percentage (%) (Jurkat T cells; hemicalcium salt): 31.9171%; Relative changed percentage (%) (Jurkat T cells; listed as D-PANTOTHENIC ACID HEMICALCIUM, hemicalcium salt): −18.99%
[Cl][Sn][Cl] [TIN(II) CHLORIDE/Tin, TIN(II) CHLORIDE]			18.86		
CCCCCCCC/C=C\CCCCCCCC(=O)O [Oleic acid]			77.53		
[Cl][Cd][Cl] [CADMIUM CIILORIDE/cadmium, CADMIUM CIILORIDE]			32.11		
